# Data published in patent US10172830B2, “Pyrazolone compounds having human neutrophil elastase inhibitory properties” (CHIESI FARMACEUTICI S.P.A., priority 2016, dated 2019).
# Target: T1, human neutrophil elastase (HNE) (Homo sapiens, UniProt P08246)
# T1 construct: purchased Sigma E8140
# T1 sequence (P08246 30-247 limits assumed): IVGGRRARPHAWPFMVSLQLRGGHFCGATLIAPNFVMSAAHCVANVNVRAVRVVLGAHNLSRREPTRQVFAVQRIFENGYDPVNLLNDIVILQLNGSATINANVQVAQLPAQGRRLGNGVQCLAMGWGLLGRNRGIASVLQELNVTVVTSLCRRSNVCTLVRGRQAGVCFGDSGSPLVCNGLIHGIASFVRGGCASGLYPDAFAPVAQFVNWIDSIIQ
# Experiment: HNE enzyme assay (human neutrophil elastase enzyme activity assay)
# Type: biochemical
# Conditions: human leukocyte elastase 0.00072 U/mL; substrate MeOSuc-Ala-Ala-Pro-Val-AMC 100 μM; 25° C. for 30 minutes; at least two separate experiments; read-out: HNE inhibition (HNE enzyme inhibition, IC50 values)
# Experimental: Compounds of the present invention were tested for potency in a human neutrophil elastase (HNE) enzyme activity assay.
# Assays were performed in 96-well plates in a total assay volume of 100 μL. The final concentration of elastase enzyme (human leukocyte elastase, Sigma E8140) was 0.00072 U/mL. The peptide substrate (MeOSuc-Ala-Ala-Pro-Val-AMC, Calbiochem #324740) was used at a final concentration of 100 μM. The final concentration of DMSO was 1% in the assay buffer (0.05M Tris.HCl, 0.1M NaCl, 0.1M CaCl2, 0.0005% brij-35, pH 7.5). The enzymatic reaction was started by addition of the enzyme and incubated at 25° C. for 30 minutes. After incubation, the reaction was stopped by addition of soybean trypsin inhibitor (Sigma T9003) at a final concentration of 50 μg/well. Fluorescence was measured using a Molecular Devices fluorescence plate reader using 380 nm excitation and 460 nm emission wavelengths.
# A dose response to each compound was performed and the effect of compound in each experiment was expressed as a percentage inhibition of the control enzyme fluorescence. Dose response curves were plotted and compound potency (IC50) was determined. Compounds were tested in at least two separate experiments.
row,SMILES,IC50 [nM]
1,"C[C@H](NC(=O)c1c(-c2ccnn2-c2ccc(C#N)cc2)n(C)n(-c2cccc(C(F)(F)F)c2)c1=O)C(=O)N1CCCN(C)CC1 [Example 17, 2′-(4-Cyano-phenyl)-2-methyl-5-oxo-1-(3-trifluoromethyl-phenyl)-2,5-dihydro-1H,2′H-[3,3′]bipyrazolyl-4-carboxylic acid [(S)-1-methyl-2-(4-methyl-[1,4]diazepan-1-yl)-2-oxo-ethyl]-amide]",< 1
2,"Cn1c(-c2ccnn2-c2ccc(C#N)cc2)c(C(=O)NC2CC[N+](C)(C)CC2)c(=O)n1-c1cccc(C(F)(F)F)c1 [Example 18, 4-{[2′-(4-Cyano-phenyl)-2-methyl-5-oxo-1-(3-trifluoromethyl-phenyl)-2,5-dihydro-1H,2′H-[3,3′]bipyrazolyl-4-carbonyl]-amino}-1,1-dimethyl-piperidinium benzene sulphonate]",< 1
3,"C[C@H](NC(=O)c1c(-c2ccnn2-c2ccc(C#N)cc2)n(C)n(-c2cccc(C(F)(F)F)c2)c1=O)c1cc[n+](C)cc1 [Example 19, 4-((S)-1-{[2′-(4-Cyano-phenyl)-2-methyl-5-oxo-1-(3-trifluoromethyl-phenyl)-2,5-dihydro-1H,2′H-[3,3′]bipyrazolyl-4-carbonyl]-amino}-ethyl)-1-methyl-pyridinium benzene sulphonate]",< 1
4,"Cn1c(-c2ccnn2-c2ccc(C#N)cc2)c(C(=O)NCCC[N+](C)(C)C)c(=O)n1-c1cccc(C(F)(F)F)c1 [Example 20, (3-{[2′-(4-Cyano-phenyl)-2-methyl-5-oxo-1-(3-trifluoromethyl-phenyl)-2,5-dihydro-1H,2′H-[3,3′]bipyrazolyl-4-carbonyl]-amino}-propyl)-trimethyl-ammonium benzene sulphonate]",1 to 10
5,"Cn1c(-c2ccnn2-c2ccc(C#N)cc2)c(C(=O)NCC[N+](C)(C)C)c(=O)n1-c1cccc(C(F)(F)F)c1 [Example 21, (2-{[2′-(4-Cyano-phenyl)-2-methyl-5-oxo-1-(3-trifluoromethyl-phenyl)-2,5-dihydro-1H,2′H-[3,3′]bipyrazolyl-4-carbonyl]-amino}-ethyl)-trimethyl-ammonium benzene sulphonate]",1 to 10
6,"Cn1c(-c2ccnn2-c2ccc(C#N)cc2)c(C(=O)NC2CC[N+]3(CCCC3)CC2)c(=O)n1-c1cccc(C(F)(F)F)c1 [Example 22, 8-{[2′-(4-Cyano-phenyl)-2-methyl-5-oxo-1-(3-trifluoromethyl-phenyl)-2,5-dihydro-1H,2′H-[3,3′]bipyrazolyl-4-carbonyl]-amino}-5-azonia-spiro[4.5]decane bromide]",< 1
7,"Cn1c(-c2ccnn2-c2ccc(C#N)cc2)c(C(=O)N[C@@H]2C[C@@H]3C[N+](C)(C)C[C@@H]3C2)c(=O)n1-c1cccc(C(F)(F)F)c1 [Example 23, (3aS,5R,6aR)-5-{[2′-(4-Cyano-phenyl)-2-methyl-5-oxo-1-(3-trifluoromethyl-phenyl)-2,5-dihydro-1H,2′H-[3,3′]bipyrazolyl-4-carbonyl]-amino}-2,2-dimethyl-octahydro-cyclopenta[c]pyrrolium benzene sulphonate]",< 1
8,"Cn1c(-c2ccnn2-c2ccc(C#N)cc2)c(C(=O)N[C@H]2CC[C@H](C[N+](C)(C)C)CC2)c(=O)n1-c1cccc(C(F)(F)F)c1 [Example 24, (Trans-4-{[2′-(4-cyano-phenyl)-2-methyl-5-oxo-1-(3-trifluoromethyl-phenyl)-2,5-dihydro-1H,2′H-[3,3′]bipyrazolyl-4-carbonyl]-amino}-cyclohexylmethyl)-trimethyl-ammonium benzene sulphonate]",< 1
9,"Cn1c(-c2ccnn2-c2ccc(C#N)cc2)c(C(=O)N[C@H]2CC[C@H](C[N+](C)(C)Cc3ccccc3)CC2)c(=O)n1-c1cccc(C(F)(F)F)c1 [Example 25, Benzyl-(trans-4-{[2′-(4-cyano-phenyl)-2-methyl-5-oxo-1-(3-trifluoromethyl-phenyl)-2,5-dihydro-1H,2′H-[3,3′]bipyrazolyl-4-carbonyl]-amino}-cyclohexylmethyl)-dimethyl-ammonium bromide]",< 1
10,"C[C@H](NC(=O)c1c(-c2ccnn2-c2ccc(C#N)cc2)n(C)n(-c2cccc(C(F)(F)F)c2)c1=O)C(=O)N1CC[N+](C)(C)CC1 [Example 26, 4-((S)-2-{[2′-(4-Cyano-phenyl)-2-methyl-5-oxo-1-(3-trifluoromethyl-phenyl)-2,5-dihydro-1H,2′H-[3,3′]bipyrazolyl-4-carbonyl]-amino}-propionyl)-1,1-dimethyl-piperazin-1-ium benzene sulphonate]",< 1
11,"C[C@H](NC(=O)c1c(-c2ccnn2-c2ccc(C#N)cc2)n(C)n(-c2cccc(C(F)(F)F)c2)c1=O)C(=O)N1CC[N+](C)(Cc2ccccc2)CC1 [Example 27, 1-Benzyl-4-((S)-2-{[2′-(4-cyano-phenyl)-2-methyl-5-oxo-1-(3-trifluoromethyl-phenyl)-2,5-dihydro-1H,2′H-[3,3′]bipyrazolyl-4-carbonyl]-amino}-propionyl)-1-methyl-piperazin-1-ium bromide]",< 1
12,"Cn1c(-c2ccnn2-c2ccc(C#N)cc2)c(C(=O)NC2C[C@H]3CC[C@@H](C2)[N+]3(C)C)c(=O)n1-c1cccc(C(F)(F)F)c1 (stereo partly drawn) [Example 28, (1S,3S,5R)-3-{[2′-(4-Cyano-phenyl)-2-methyl-5-oxo-1-(3-trifluoromethyl-phenyl)-2,5-dihydro-1H,2′H-[3,3′]bipyrazolyl-4-carbonyl]-amino}-8,8-dimethyl-8-azonia-bicyclo[3.2.1]octane benzene sulphonate]",< 1
13,"Cn1c(-c2ccnn2-c2ccc(C#N)cc2)c(C(=O)NC[C@H]2CC[C@H]([N+](C)(C)C)CC2)c(=O)n1-c1cccc(C(F)(F)F)c1 [Example 29, [Trans-4-({[2′-(4-cyano-phenyl)-2-methyl-5-oxo-1-(3-trifluoromethyl-phenyl)-2,5-dihydro-1H,2′H-[3,3′]bipyrazolyl-4-carbonyl]-amino}-methyl)-cyclohexyl]-trimethyl-ammonium benzene sulphonate]",1 to 10
14,"C[C@H](NC(=O)c1c(-c2ccnn2-c2ccc(C#N)cc2)n(C)n(-c2cccc(C(F)(F)F)c2)c1=O)c1ncc(C[N+](C)(C)C)o1 [Example 30, [2-((S)-1-{[2′-(4-Cyano-phenyl)-2-methyl-5-oxo-1-(3-trifluoromethyl-phenyl)-2,5-dihydro-1H,2′H-[3,3′]bipyrazolyl-4-carbonyl]-amino}-ethyl)-oxazol-5-ylmethyl]-trimethyl-ammonium benzene sulphonate]",< 1
15,"C[C@H](NC(=O)c1c(-c2ccnn2-c2ccc(C#N)cc2)n(C)n(-c2cccc(C(F)(F)F)c2)c1=O)c1ncc(C[N+](C)(C)Cc2ccccc2)o1 [Example 31, Benzyl-[2-((S)-1-{[2′-(4-cyano-phenyl)-2-methyl-5-oxo-1-(3-trifluoromethyl-phenyl)-2,5-dihydro-1H,2′H-[3,3′]bipyrazolyl-4-carbonyl]-amino}-ethyl)-oxazol-5-ylmethyl]-dimethyl-ammonium bromide]",< 1
16,"Cc1cc(C[N+](C)(C)Cc2cnc([C@H](C)NC(=O)c3c(-c4ccnn4-c4ccc(C#N)cc4)n(C)n(-c4cccc(C(F)(F)F)c4)c3=O)o2)no1 [Example 32, [2-((S)-1-{[2′-(4-Cyano-phenyl)-2-methyl-5-oxo-1-(3-trifluoromethyl-phenyl)-2,5-dihydro-1H,2′H-[3,3′]bipyrazolyl-4-carbonyl]-amino}-ethyl)-oxazol-5-ylmethyl]-dimethyl-(5-methyl-isoxazol-3-ylmethyl)-ammonium chloride]",< 1
17,"Cn1c(-c2ccnn2-c2ccc(C#N)cc2)c(C(=O)NC2CCN(C(=O)C[N+](C)(C)C)CC2)c(=O)n1-c1cccc(C(F)(F)F)c1 [Example 33, [2-(4-{[2′-(4-Cyano-phenyl)-2-methyl-5-oxo-1-(3-trifluoromethyl-phenyl)-2,5-dihydro-1H,2′H-[3,3′]bipyrazolyl-4-carbonyl]-amino}-piperidin-1-yl)-2-oxo-ethyl]-trimethyl-ammonium benzene sulphonate]",< 1
18,"Cn1c(-c2ccnn2-c2ccc(C#N)cc2)c(C(=O)OC2CCN(C(=O)C[N+](C)(C)C)CC2)c(=O)n1-c1cccc(C(F)(F)F)c1 [Example 34, (2-{4-[2′-(4-Cyano-phenyl)-2-methyl-5-oxo-1-(3-trifluoromethyl-phenyl)-2,5-dihydro-1H,2′H-[3,3′]bipyrazolyl-4-carbonyloxy]-piperidin-1-yl}-2-oxo-ethyl)-trimethyl-ammonium benzene sulphonate]",1 to 10
19,"C[C@H](NC(=O)c1c(-c2ccnn2-c2ccc(C#N)cc2)n(C)n(-c2cccc(C(F)(F)F)c2)c1=O)C(=O)N1CCC([N+](C)(C)Cc2ccccc2)CC1 [Example 35, Benzyl-[1-((S)-2-{[2′-(4-cyano-phenyl)-2-methyl-5-oxo-1-(3-trifluoromethyl-phenyl)-2,5-dihydro-1H,2′H-[3,3′]bipyrazolyl-4-carbonyl]-amino}-propionyl)-piperidin-4-yl]-dimethyl-ammonium bromide]",< 1
